Assay results from patent US20260217763A1, “Novel Peptide and Use Thereof” (Zincure Corp., priority 2022, published 2026).
“Also recorded” adds a separate entry of the source.

What was measured:
Type in all cases: cell-based
[1] = system: EGFP-α-synuclein A53T aggregates in HEK293T cell line; experiment: α-synuclein protein aggregates after overexpression, Western blot; conditions: bafilomycin 100 nM alone compared to the control
Method: (§1) FIG. 5 is a result of Western blot analysis of the level of α-synuclein protein expression in protein samples obtained 18 h after treatment of HEK293T cells transfected to express α-synuclein with 100 nM bafilomycin A1 alone or in combination with 30 µM of some variant alloferon peptides according to one embodiment of the present invention, for investigating the degradation of α-synuclein protein aggregates by treatment with some variant alloferon peptides (DALS1, DAL-VS_V(−Q), DAL1, and DALV2) according to one embodiment of the present invention.
(§2) The present inventors then investigated whether some of the variant peptides (DALS1, DALVS_V, DAL1, DALV2) comprising the amino acid sequences designated as SEQ ID NO: 3 through 16 could resolve SOD1 aggregates that formed after transient transfection of SOD1 protein into the 293T cell line. To this end, EGFP-SOD1 G93A DNA was transiently transfected into the HEK293T cell line using Lipofectamine 2000. After transfection, the cell lines were incubated in a cell culture machine at 37° C. and 5% CO2 for 30 h, and the culture medium was replaced with Minimum Essential Medium (MEM, Gibco, USA). Subsequently, the cells were pretreated with 100 nM bafilomycin for 30 min, which were then treated with μM variant alloferon peptide and incubated for 18 h. […] Then, it was subjected to protein quantification using BCA protein assay kit (Pierce Biotechnology, USA), and centrifuged at 17,000×g for 20 min, where the supernant was discarded and only the cell debris was taken to obtain protein. Subsequently, 5× sample buffer (300 mM Tris, pH 6.8, 10% SDS, 50% Glycerol, 0.1% BPB, 2.5% Mercaptoethanol, 100 mM DTT) was mixed with the quantified sample, denatured at 95° C. for 5 min, and prepared for analysis. […] Protein signals were detected using enhanced chemiluminescence (INTRON Biotechnology, South Korea) and a bio-imaging system (MF-Chemibis, Shimadzu Scientific Korea Corporation, South Korea). […]

[2] = system: H4 cell lines (GL-H4) expressing GFP-linked LC3; experiment: Analysis of autophagic flow blocked by bafilomycin A-1 (LC3-GFP spots); conditions: bafilomycin (Baf A1) 100 nM alone, GL-H4 cells
Method: FIGS. 2A to 2C are series of fluorescence micrographs of LC3-GFP spots 12 h after treating H4 cell line (GL-H4) that stably overexpresses GFP-LC3 protein with various variant alloferon peptides according to one embodiment of the present invention in combination with bafilomycin at a concentration of 20 μM, showing that autophagic flux blocked by bafilomycin A-1 is restored by the variant alloferon peptides according to one embodiment of the present invention. FIGS. 2D to 2F are graphs showing quantification of the fluorescence intensity of LC3-GFP spots 12 h after treatment of the GL-H4 cell line with the variant alloferon peptides according to one embodiment of the present invention in combination with bafilomycin at a concentration of 20 μM.
H4 cell line (GL-H4) and HEK293T cell line permanently transfected with GFP-LC3 plasmid were used in the present invention. The cell culture medium was Minimum Essential Medium (MEM, WellGene) supplemented with 10% fetal bovine serum (Hyclone, USA) and antibiotic and antifungal mixture (WellGene, Korea) and cultured in a cell culture machine at 37° C. and 5% CO2.
To investigate the effect of peptides comprising the amino acid sequences designated as SEQ ID NO: 3 to 16 on autophagic flow, the present inventors treated H4 cell lines (GL-H4) expressing GFP-linked LC3 with the peptides (20 μM) and/or the autophagic inhibitor Bafilomycin A-1 (Baf A1, 100 nM) to inhibit autophagy, and then the effect of the variant alloferon peptides according to one embodiment of the present invention was investigated by fluorescence microscopy analysis.

[3] = system: EGFP-Tau P301L aggregates in HEK293T cell line; experiment: Mutant tau protein aggregates after overexpression, Western blot; conditions: bafilomycin 100 nM alone compared to control
Method: as §1, with “FIG. 4A” for “FIG. 5”, “of tau” for “of α-synuclein”, “express tau protein” for “express α-synuclein”, “30 μM” for “30 µM”, “invention. FIG. 4B is a graph representing the results of quantifying relative expression of the tau protein. […]” for “invention.”
The present inventors then investigated whether some of the variant peptides (DALS1, DALVS_V, DAL1, DALV2) comprising the amino acid sequences designated as SEQ ID NO: 3 through 16 could resolve SOD1 aggregates that formed after transient transfection of SOD1 protein into the 293T cell line. […] Then, it was subjected to protein quantification using BCA protein assay kit (Pierce Biotechnology, USA), and centrifuged at 17,000×g for 20 min, where the supernant was discarded and only the cell debris was taken to obtain protein. Subsequently, 5× sample buffer (300 mM Tris, pH 6.8, 10% SDS, 50% Glycerol, 0.1% BPB, 2.5% Mercaptoethanol, 100 mM DTT) was mixed with the quantified sample, denatured at 95° C. for 5 min, and prepared for analysis. […]

[4] = system: GFP-mHttQ74 aggregates in HEK293T cell line; experiment: Mutant huntingtin protein aggregates after overexpression, Western blot; conditions: bafilomycin 100 nM alone compared to the control
Method: as §1, with “FIG. 6” for “FIG. 5”, “of mutant huntingtin” for “of α-synuclein”, “express mutant huntingtin protein” for “express α-synuclein”, “30 μM” for “30 µM”
as §2

[5] = system: EGFP-SOD1 G93A aggregates in HEK293T cell line; experiment: SOD1 protein aggregates after SOD1 overexpression, Western blot; conditions: bafilomycin 100 nM alone compared to the control
Method: as §1, with “3A” for “5”, “SOD1” for “α-synuclein”, “μM” for “µM”, “invention. FIG. 3B is a graph representing the results of quantifying relative expression of the SOD1 protein. In FIG. 3B, * indicates a significant difference compared to the treatment with bafilomycin alone (* p<0.05).” for “invention.”
The present inventors then investigated whether some of the variant peptides (DALS1, DALVS_V, DAL1, DALV2) comprising the amino acid sequences designated as SEQ ID NO: 3 through 16 could resolve SOD1 aggregates that formed after transient transfection of SOD1 protein into the 293T cell line. To this end, EGFP-SOD1 G93A DNA was transiently transfected into the HEK293T cell line using Lipofectamine 2000. After transfection, the cell lines were incubated in a cell culture machine at 37° C. and 5% CO2 for 30 h, and the culture medium was replaced with Minimum Essential Medium (MEM, Gibco, USA). Subsequently, the cells were pretreated with 100 nM bafilomycin for 30 min, which were then treated with μM variant alloferon peptide and incubated for 18 h. After that, proteinase inhibitors and phosphatase inhibitors (2 μg/ml aprotinin, 2 μg/ml leupeptin, 1 μg/ml pepstatin A, 1 mM phenyl-methylsulfonyl fluoride (PMSF), 1 mM Na3 VO4, 5 mM NaF and 10 mM Na4P2O7) were put into a 6-well culture dish at 200 μl per well to lyse the cells. The obtained cell lysate was first left at 30 min for 4° C. Then, it was subjected to protein quantification using BCA protein assay kit (Pierce Biotechnology, USA), and centrifuged at 17,000×g for 20 min, where the supernant was discarded and only the cell debris was taken to obtain protein. Subsequently, 5× sample buffer (300 mM Tris, pH 6.8, 10% SDS, 50% Glycerol, 0.1% BPB, 2.5% Mercaptoethanol, 100 mM DTT) was mixed with the quantified sample, denatured at 95° C. for 5 min, and prepared for analysis. Then, electrophoresis was performed using 8% to 15% SDS-polyacrylamide gel, and the proteins separated by their sizes were transferred to polyvinylidene difluoride (PVDF) membranes (Millipore, USA). The protein-transferred membranes were then blocked with 3% skim milk powder in TBST for 1 h. […] Protein signals were detected using enhanced chemiluminescence (INTRON Biotechnology, South Korea) and a bio-imaging system (MF-Chemibis, Shimadzu Scientific Korea Corporation, South Korea).

For CO/C1=C\C(C)=C\[C@@H](C)[C@@H](O)[C@@H](C)C/C(C)=C/C=C/[C@H](OC)[C@@H]([C@@H](C)[C@@H](O)[C@H](C)[C@@]2(O)C[C@@H](O)[C@H](C)[C@@H](C(C)C)O2)OC1=O [bafilomycin, Bafilomycin A-1, reference compound], which α-synuclein protein aggregates [1] is on record?
The α-synuclein protein aggregates was “increased”.

What about the “number and size of LC3 spots” value [2] of the same compound?
Its value is “significantly increased; also recorded: significant increase in the number and size of LC3 spots”.

What about the “mutant tau protein aggregates” value [3] of the same compound?
The value was “increased”.

What about the “mutant huntingtin protein aggregates” value [4] of the same compound?
Its value is “increased”.

What about the SOD1 protein aggregates [5] of the same compound?
Its SOD1 protein aggregates is “increased”.
